# Assay results as given in US7238775B2, “Receptor(SSTR4)-selective somatostatin analogs” (The Salk Institute for Biological Studies, priority 2002, dated 2007).
# “And” between values parts separate entries of the source, which are not always exact repeats. Equal entries are not always repeated. Bridge positions count the residues as written; N and C are the ends. Peptide text beside a SMILES is read from it.
# What was measured:
# Test in all cases: Displacement of 125I-[Leu8,D-Trp22,Tyr25]SRIF-28 from cloned receptor, membrane pellet autoradiography
# Format in all cases: binding
# hSSTR1 = target: T1, hSSTR1 (Homo sapiens, UniProt P30872)
# T1 construct: expressed in transfected cells; host or cells: CHO-K1 cells and CCL39 cells
# T1 sequence (P30872 whole entry): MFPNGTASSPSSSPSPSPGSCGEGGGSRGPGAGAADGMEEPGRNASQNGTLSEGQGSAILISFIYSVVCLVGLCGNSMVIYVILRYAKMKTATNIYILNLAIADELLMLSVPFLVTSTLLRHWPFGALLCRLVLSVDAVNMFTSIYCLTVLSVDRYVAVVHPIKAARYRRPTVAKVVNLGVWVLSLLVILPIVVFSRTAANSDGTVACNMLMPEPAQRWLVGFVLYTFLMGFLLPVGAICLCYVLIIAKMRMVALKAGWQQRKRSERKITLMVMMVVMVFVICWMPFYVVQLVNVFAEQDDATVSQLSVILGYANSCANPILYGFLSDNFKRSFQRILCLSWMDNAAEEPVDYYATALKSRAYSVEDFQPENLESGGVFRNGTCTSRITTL
# Description: (§1) In vitro Bioassay: The effects of the various somatostatin analogs are tested in vitro for their ability to bind to isolated cloned receptors expressed on CHO-K1 cells and CCL39 cells. CHO-K1 cells are grown in Ham's F-12 medium, and CCL39 cells are grown in Dulbecco's modified Eagle's medium/Ham's F-12(1:1) mix, supplemented with 10% fetal bovine serum, 100 U/ml penicillin and 100 μg/ml streptomycin, in humidified air containing 5% CO2 at 37° C.
# (§2) Cells are washed twice with and scraped into ice-cold 0.05 M Tris-HCl (pH 7.4), collected by centrifugation, and homogenized using a rotor/stator/system in the same buffer. After centrifugation at 120 g for 5 min at 4° C., the supernatant is collected and centrifuged again at 48,000 g for 30 min at 4° C. The resulting pellet is resuspended in ice-cold Tris buffer, transferred into a microfuge tube, and centrifuged at 20,000 g for 15 min at 4° C. After withdrawal of the supernatant, the membrane pellet is stored at −80° C.
# Receptor autoradiography is performed on 20 μm thick cryostat sections of the membrane pellets, mounted on microscope slides, and then stored at −20° C. […] […] […] IC50 values are calculated after quantification of the data using a computer-assisted image processing system as known in this art.
# (§3) The numbers in parentheses indicate the number of times the particular binding test was carried out.
# hSSTR5 = target: T2, hSSTR5 (Homo sapiens, UniProt P35346)
# T2 construct: expressed in transfected cells; host or cells: CHO-K1 cells and CCL39 cells
# T2 sequence (P35346 whole entry): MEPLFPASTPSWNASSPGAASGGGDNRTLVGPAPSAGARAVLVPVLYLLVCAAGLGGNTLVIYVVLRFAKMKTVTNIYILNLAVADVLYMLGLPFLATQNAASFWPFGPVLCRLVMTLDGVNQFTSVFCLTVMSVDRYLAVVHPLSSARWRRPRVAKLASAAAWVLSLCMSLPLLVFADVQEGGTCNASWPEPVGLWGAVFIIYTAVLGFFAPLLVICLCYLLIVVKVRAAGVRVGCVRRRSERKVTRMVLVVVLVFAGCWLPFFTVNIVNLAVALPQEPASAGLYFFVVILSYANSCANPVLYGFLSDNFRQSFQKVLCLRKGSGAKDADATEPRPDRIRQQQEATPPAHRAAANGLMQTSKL
# Description: as §1, §2
# (§4) Receptor autoradiography is performed on 20 μm thick cryostat sections of the membrane pellets, mounted on microscope slides, and then stored at −20° C. […] Increasing concentrations of the unlabeled peptide are used ranging from 0.1-1000 nM. […] IC50 values are calculated after quantification of the data using a computer-assisted image processing system as known in this art.
# as §3
# hSSTR3 = target: T3, hSSTR3 (Homo sapiens, UniProt P32745)
# T3 construct: expressed in transfected cells; host or cells: CHO-K1 cells and CCL39 cells
# T3 sequence (P32745 whole entry): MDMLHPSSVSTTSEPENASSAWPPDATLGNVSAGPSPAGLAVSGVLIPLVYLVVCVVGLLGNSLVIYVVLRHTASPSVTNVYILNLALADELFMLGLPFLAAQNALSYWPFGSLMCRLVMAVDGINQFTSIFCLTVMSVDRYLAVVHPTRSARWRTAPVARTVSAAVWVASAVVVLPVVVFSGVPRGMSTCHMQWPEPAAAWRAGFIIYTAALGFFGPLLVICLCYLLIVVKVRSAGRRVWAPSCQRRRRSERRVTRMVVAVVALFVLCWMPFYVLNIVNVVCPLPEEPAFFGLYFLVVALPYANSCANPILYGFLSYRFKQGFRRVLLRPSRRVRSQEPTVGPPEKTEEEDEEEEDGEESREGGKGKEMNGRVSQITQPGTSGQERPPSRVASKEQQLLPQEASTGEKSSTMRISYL
# Description: as §1, §2, §4, §3
# hSSTR4 = target: T4, hSSTR4 (Homo sapiens, UniProt P31391); settings: for IC50: inhibition of 125I-SRIF-28 radioligand binding, cloned human receptor
# T4 construct: expressed in transfected cells; host or cells: CHO-K1 cells and CCL39 cells
# T4 sequence (P31391 whole entry): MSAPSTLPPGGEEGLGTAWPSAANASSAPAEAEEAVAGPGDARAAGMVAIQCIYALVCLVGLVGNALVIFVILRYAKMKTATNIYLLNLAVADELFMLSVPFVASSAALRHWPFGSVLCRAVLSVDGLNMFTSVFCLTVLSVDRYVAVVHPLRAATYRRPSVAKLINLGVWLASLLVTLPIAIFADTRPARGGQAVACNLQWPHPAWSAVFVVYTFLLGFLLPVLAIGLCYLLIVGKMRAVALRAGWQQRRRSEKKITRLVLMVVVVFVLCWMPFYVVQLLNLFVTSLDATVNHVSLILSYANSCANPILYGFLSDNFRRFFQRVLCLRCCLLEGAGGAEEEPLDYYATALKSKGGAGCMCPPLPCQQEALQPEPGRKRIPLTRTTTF
# Description: as §1, §2, §4, §3
# hSSTR2 = target: T5, hSSTR2 (Homo sapiens, UniProt P30874)
# T5 construct: expressed in transfected cells; host or cells: CHO-K1 cells and CCL39 cells
# T5 sequence (P30874 whole entry): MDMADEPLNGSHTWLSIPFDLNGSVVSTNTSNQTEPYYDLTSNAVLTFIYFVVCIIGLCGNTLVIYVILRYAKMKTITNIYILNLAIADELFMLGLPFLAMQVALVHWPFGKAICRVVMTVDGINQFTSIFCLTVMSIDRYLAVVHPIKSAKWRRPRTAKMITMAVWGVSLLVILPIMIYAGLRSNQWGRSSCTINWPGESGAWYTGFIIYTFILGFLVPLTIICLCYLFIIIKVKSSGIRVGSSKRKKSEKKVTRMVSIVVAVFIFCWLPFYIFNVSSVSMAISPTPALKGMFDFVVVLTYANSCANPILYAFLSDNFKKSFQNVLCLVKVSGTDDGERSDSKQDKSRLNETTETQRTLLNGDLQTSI
# Description: as §1, §2, §4, §3
SMILES,concentration below which it does not bind to human SSTR1 (hSSTR1) [nM],concentration below which it does not bind to human SSTR5 (hSSTR5) [nM],concentration below which it does not bind to human SSTR3 (hSSTR3) [nM],selectivity in binding to SSTR4 compared with the other 4 receptors (in words) (hSSTR4),IC50 (hSSTR4),concentration below which it does not bind to human SSTR2 (hSSTR2) [nM],effect on binding of the SRIF-28 radioligand to human SSTR1 (hSSTR1; at 100 nM),effect on binding of the SRIF-28 radioligand to SSTR5 (hSSTR5; at 100 nM),"IC50 (hSSTR5; inhibition of 125I-SRIF-28 radioligand binding, cloned human receptor) [nM]",effect on binding of the SRIF-28 radioligand to SSTR3 (hSSTR3; at 100 nM),effect on binding of the SRIF-28 radioligand to human SSTR2 (hSSTR2; at 100 nM)
C[C@@H]1NC(=O)[C@H](Cc2ccccc2)NC(=O)[C@@H](N)CSSC[C@@H](C(=O)O)NC(=O)[C@H](Cc2ccccc2)NC(=O)[C@H]([C@@H](C)O)NC(=O)[C@H](CCCCN)NC(=O)[C@H](Cc2c[nH]c3ccccc23)NC1=O [Peptide No. 12] (H-CFAWKTFC-OH; disulfide 1-8),≥ 750,≥ 630,≥ 750,likewise selective,~0.84 nM and 0.84 nM,≥ 750,,,,,
"C[C@@H](O)[C@@H]1NC(=O)[C@H](CCCCN)NC(=O)[C@H](Cc2c[nH]c3ccccc23)NC(=O)[C@H](Cc2ccc(N)cc2)NC(=O)[C@H](Cc2ccccc2)NC(=O)[C@@H](N)CSSC[C@@H](C(=O)O)NC(=O)[C@H](Cc2ccccc2)NC1=O [Peptide No. 1, (cyclo)H-Cys-Phe-4Aph-Trp-Lys-Thr-Phe-Cys-OH]",,,,selectively bound to SSTR4,~1.2 nM and 1.2 nM,,minimal effects,very minimal effect,1000,very minimal effect,minimal effects
